# From patent publication US20240091214A1, “LONAFARNIB FOR USE IN THE TREATMENT OF VIRAL INFECTIONS” (TWINCORE ZENTRUM FÜR EXPERIMENTELLE UND KLINISCHE …, priority 2021, published 2024)
# Like-named read-outs stand apart in the source and are kept apart here.
# Key:
# HRSV-B virus = assay: HRSV-B infection assay, number of infected cells; format: cell-based; details: % compared to DMSO control (FIG. 9)
# Excerpt: However, […].
# [1] = cited from earlier work
# [2] = tested on: clinical HRSV isolate HRSV H01 ON1; assay: Plaque reduction test with clinical HRSV isolate; format: cell-based, human respiratory syncytial virus (HRSV); details: clinical HRSV H01 ON1 isolate (FIG. 4)
# Experimental: The respective concentrations of lonafarnib, tipifarnib and DMSO (control; final concentration 1%) administered to the cells are indicated on the respective well.
# To confirm the antiviral effect of lonafarnib, an infection assay was performed with the clinical HRSV isolate HRSV H01 ON1. The infection efficiency was assessed in the plaque reduction test, i.e. independently of an indirect reporter gene measurement. […] (FIG. 4)
# [3] = animals, formulated in crystalline forms; cited from earlier work
# [4] = tested on: Hepatitis Delta Virus (HDV); assay: Production of infectious Hepatitis Delta Virus in transfected Huh7-hNTCP cells; format: cell-based; details: increasing concentrations (FIG. 8)
# Experimental: 16 h later medium was exchanged and the cells were then cultured in absence or presence of 1% DMSO or increasing concentrations of lonafarnib or tipifarnib; (A) 10 days post transfection, translation of the HDV viral genome in the cells was confirmed by immunofluorescence and percentage of positive cells was calculated; (B) production of infectious progeny HDV was assessed by incubating serial dilutions of their supernatants on naïve Huh7-hNTCP, followed by staining for the HD-Ag—dashed lines indicates the detection threshold of the assay.
# [5] = tested on: HRSV luciferase reporter virus; assay: HRSV luciferase reporter virus infection assay (first and second round of infection); format: cell-based, human respiratory syncytial virus (HRSV); details: for IC50: human respiratory syncytial virus, 24 h
# Excerpt: The dose-response relationship of lonafarnib to the HRSV reporter virus is shown on the right. Below are the IC50 and IC90 values of the first round of infection and the second round of infection, respectively, and the 50% cytotoxic concentration of lonafarnib (CC50).
# The chemical structure of the farneslytransferase inhibitors lonafarnib and tipifarnib is shown above. The dose-response relationship of these agents against the HRSV luciferase reporter virus is shown below.
# Efficiency of HRSV infection-inhibition by lonafarnib was investigated by a series of infection assays. In the first round of infection, the effect of lonafarnib on the virus' cell entry, which includes RNA transcription, translation and replication up to 24 hours after infection, was investigated. In the second round of infection, the cell culture supernatant was harvested and transferred to naive cells at 24 h after primary infection. In these cells, again 24 h later, the infection efficiency was determined using the luciferase reporter. In this way, the efficiency was analyzed over a longer period of time, including the spread of the virus and the re-infection of cells. The IC50 values were determined at 0.02 μM (round 1) and 0.004 μM (round 2). (FIG. 2)
# In a further trial, the effect of lonafarnib compared to the farnesyltransferase inhibitor tipifarnib on HRSV-infected cell culture was then analyzed and compared.
# [6] = tested on: HRSV virus population with resistance to a fusion inhibitor (mutations within the F protein); assay: Infection assay with HRSV population resistant to an HRSV fusion inhibitor, intracellular FACS staining; format: cell-based, human respiratory syncytial virus (HRSV); details: fusion inhibitor adapted virus compared with DMSO adapted virus (FIG. 6)
# Experimental: The most significant reduction of infected cells is shown in the DMSO adapted virus population by administration of lonafarnib. Dark grey: DMSO adapted virus; light grey: fusion inhibitor adapted virus.
# Further, the efficacy of lonafarnib on HRSV virus population that had previously developed resistance to an HRSV fusion inhibitor was investigated. The effectiveness of HRSV infection (number of infected cells) was determined by intracellular FACS staining. […] The HRSV virus population with resistance to a fusion inhibitor was also less susceptible to inhibition by lonafarnib.
# HRSV = HRSV infection of differentiated BCi-NS1.1 air-liquid-interface cultures, viral load by qRT-PCR; format: cell-based, human respiratory syncytial virus (HRSV); details: differentiated human airway epithelial cells (BCi-NS1.1), HBSS rinsing fluid and harvested cells, different doses and time points (FIG. 7)
# Excerpt: Shown are viral loads measured by qRT-PCR after HRSV infection in differentiated BCi-NS1.1 cells and treatment with lonafanib at different doses. right: viral load in HBSS rinsing fluid at different time points after infection. left: viral load of harvested cells, also at different time points after infection.
# Then, the antiviral effect of lonafarnib against HRSV was shown in differentiated human airway epithelial cells. Therefore, BCi NS1.1 cells were differentiated and used in so-called “air-liquid-interface” cultures to form a pseudo-stratified lung epithelium. The cells were then infected with HRSV and treated with lonafarnib at different concentrations. The compounds were added to the medium from the basolateral pole of the cell (“liquid interface”, homologous to the blood stream) as well as administered apically (homologous to local treatment via inhalation). At different time points post infection, the cell surface (“air interface”, apical side of the cell culture, homologous to the lumen of the lung) was rinsed with HBSS to remove released viruses from the cell surface. The viral load in the HBSS rinsing fluid was determined by qRT-PCR. Also, at each time point cells were lysed and the virus load in the cell extract was determined by qRT-PCR. (FIG. 7)
# HRSV H01 ON1 isolate = assay: Infection assay with HRSV H01 ON1 isolate, intracellular FACS staining against a virus own protein; format: cell-based, human respiratory syncytial virus (HRSV)
# Experimental: Both graphs show data from analysing the viral infection efficiency by intracellular flow cytometry staining against a virus own protein. […] MFI: mean fluorescence intensity
# Another infection assay was carried out with the HRSV H01 ON1 isolate. The analysis/quantification of the viral infection efficiency was carried out by intracellular FACS staining against a virus own protein. […] The amount of viral proteins in the infected cells was […] by the administration of lonafarnib.
smiles,measurement,setting,value
NC(=O)N1CCC(CC(=O)N2CCC([C@H]3c4ncc(Br)cc4CCc4cc(Cl)cc(Br)c43)CC2)CC1 [lonafarnib],inhibition of HRSV-B infection (number of infected cells),HRSV-B virus,selectively and efficiently inhibits the number of infected cells
same,stability in solution,[1]; acidic or basic conditions,will hydrolyze
same,water solubility,[1],poorly water soluble
same,stability in solution,[1]; neutral pH,stable at neutral pH
same,stability in the solid state,"[1]; solid state, thermal",thermally stable
same,plaque formation (plaque size and number),[2],reduced plaque size and number in a dose-dependent manner
same,bioavailability,[3],low and variable
same,inhibition of Hepatitis Delta infections,[4],equally inhibit Hepatitis Delta infections
same,suppression of HRSV infection,"[5]; HRSV-infected cell culture, dose-response, comparison of lonafarnib and tipifarnib (FIG. 3)",highly effective
same,IC50,"[5]; read-out: IC50, first round of infection",20 nM
same,IC50,"[5]; read-out: IC50, second round of infection",4 nM
same,activity against fusion inhibitor-resistant HRSV population (number of infected cells),[6],reduced activity
same,inhibition of HRSV infection (viral load by qRT-PCR),HRSV,inhibits HRSV infection
same,number of infected cells,HRSV H01 ON1 isolate; intracellular FACS staining (FIG. 5 left),reduced the number of infected cells in a dose-dependent manner
same,amount of viral proteins in the infected cells (MFI),HRSV H01 ON1 isolate; intracellular FACS staining (FIG. 5 right),not reduced
